Values joined by “and” are separate entries in the source; they are usually repeats but may differ in a detail not shown here. Equal entries are not always repeated. Where a SMILES comes first, the peptide text is derived from it. [ ]: non-standard residue; d: D form. Hyp = O=C(O)[C@@H]1C[C@@H](O)CN1
Assays:
[1] = test system: GM-CSF; assay: Example 9 Luminex, LPS hPBMCs: GM-CSF; type: cell-based, human
Experimental: (§1) Treatment Human PBMCs were pretreated with YY-101, YDE-011 and YDE-043 or reference compound; Xiidra® at various concentration (ranging from 1 nM to 100 uM) for 2 h before stimulation. An equal volume of 0.5% DMSO was used as a vehicle control. Then, the cells were treated with LPS at 5 ug/ml. The supernatants from treated cells were harvested at 24 h and placed in a 96 well for Luminex cytokine & chemokine profiling using a Luminex 200 multiplex assay (Luminex; R&D system, USA).
(§2) The main study arm with triplicate wells per group in a 24-well plate: • 1. Blank • 2. PBMC: 0.5% DMSO • 3. PBMC+LPS (5 ug/ml) • 4. PBMC+YY-101 100 uM • 5. PBMC+YY-101 10 uM • 6. PBMC+YY-101 1 uM • 7. PBMC+YY-101 0.1 uM • 8. PBMC+YY-101 0.01 uM • 9. PBMC+LPS (5 ug/ml)+Xiidra®100 uM • 10. PBMC+LPS (5 ug/ml)+Xiidra® 10 uM • 11. PBMC+LPS (5 ug/ml)+Xiidra® 1 uM • 12. PBMC+LPS (5 ug/ml)+Xiidra®0.1 uM • 13. PBMC+LPS (5 ug/ml)+Xiidra®0.01 uM • 14. PBMC+LPS (5 ug/ml)+Xiidra®0.001 uM • 15. PBMC+LPS (5 ug/ml)+YY-101 100 uM • 16. PBMC+LPS (5 ug/ml)+YY-101 10 uM • 17. PBMC+LPS (5 ug/ml)+YY-101 1 uM • 18. PBMC+LPS (5 ug/ml)+YY-101 0.1 uM • 19. PBMC+LPS (5 ug/ml)+YY-101 0.01 uM • 20. PBMC+LPS (5 ug/ml)+YY-101 0.001 uM • 21. PBMC+LPS (5 ug/ml)+YDE-011 100 uM • 22. PBMC+LPS (5 ug/ml)+YDE-011 10 uM • 23. PBMC+LPS (5 ug/ml)+YDE-011 1 uM • 24. PBMC+LPS (5 ug/ml)+YDE-011 0.1 uM • 25. PBMC+LPS (5 ug/ml)+YDE-011 0.01 uM • 26. PBMC+LPS (5 ug/ml)+YDE-011 0.001 uM • 27. PBMC+LPS (5 ug/ml)+YDE-043 100 uM • 28. PBMC+LPS (5 ug/ml)+YDE-043 10 uM • 29. PBMC+LPS (5 ug/ml)+YDE-043 1 uM • 30. PBMC+LPS (5 ug/ml)+YDE-043 0.1 uM • 31. PBMC+LPS (5 ug/ml)+YDE-043 0.01 uM • 32. PBMC+LPS (5 ug/ml)+YDE-043 0.001 uM
(§3) Multiplex assay was used to measure 30 cytokines and chemokines. The 1:2, 1:10 and 1:200 diluted cell supernatant and serial dilution of the standard were dispensed into a 96 well plate at 50 ul/well. Then, the pre-mixed cocktail of antibody-coated magnetic beads was dispensed at 50 ul/well and incubated at room temperature for 2 h in a horizontal orbital microplate shaker at 800±500 rpm. The beads were washed using a magnetic device to prevent loss. The biotin-antibody was dispensed in 50 ul of each well and incubated at room temperature for 1 h in a shaker at 800±500 rpm. After washing, streptavidin-PE was added at 50 ul/well and incubated at room temperature for 30 min in a shaker under the same conditions. Finally, after washing, wash buffer (100 ul/well) was added to the plate and incubated in a shaker for 2 min. The Luminex™ 200 setting were set according to the manufacturer's protocol. The data was calculated with a standard five-parameter logistic nonlinear regression analysis of the data (xPonent software 4.2, USA). The levels of cytokine/chemokine are normalized to the live cell counts (1×10^5 cells/mL) and presented as concentrations per mL (pg/mL or ng/mL).

[2] = test system: CCL20/MIP-3 alpha; assay: Example 9 Luminex, LPS hPBMCs: CCL20/MIP-3 alpha; type: cell-based, human
Experimental: as §1, §2, §3

[3] = PBMC + LPS(5 ug/ml) + test article 0.001 uM, Mean
[4] = PBMC + LPS(5 ug/ml) + test article 0.001 uM, single replicates
[5] = PBMC + LPS(5 ug/ml) + test article 0.01 uM, Mean
[6] = PBMC + LPS(5 ug/ml) + test article 0.01 uM, single replicates
[7] = PBMC + LPS(5 ug/ml) + test article 0.1 uM, Mean
[8] = PBMC + LPS(5 ug/ml) + test article 0.1 uM, single replicates
[9] = PBMC + LPS(5 ug/ml) + test article 1 uM, Mean
[10] = PBMC + LPS(5 ug/ml) + test article 1 uM, single replicates
[11] = PBMC + LPS(5 ug/ml) + test article 10 uM, Mean
[12] = PBMC + LPS(5 ug/ml) + test article 10 uM, single replicates
[13] = PBMC + LPS(5 ug/ml) + test article 100 uM, Mean
[14] = PBMC + LPS(5 ug/ml) + test article 100 uM, single replicates
[15] = PBMC + LPS(5 ug/ml) + test article 0.001 uM, individual replicate
[16] = PBMC + LPS(5 ug/ml) + test article 0.01 uM, individual replicate
[17] = PBMC + LPS(5 ug/ml) + test article 0.1 uM, individual replicate
[18] = PBMC + LPS(5 ug/ml) + test article 1 uM, individual replicate
[19] = PBMC + LPS(5 ug/ml) + test article 10 uM, individual replicate
[20] = PBMC + LPS(5 ug/ml) + test article 100 uM, individual replicate

In the case of `CC(C)C[C@H](NC(=O)CNC(=O)[C@H](CC(C)C)NC(=O)[C@H](CCC(N)=O)NC(=O)CNC(=O)[C@@H]1C[C@@H](O)CN1)C(=O)N[C@@H](C)C(=O)NCC(=O)N1CCC[C@H]1C(=O)N[C@@H](CCCCN)C(=O)O` [YDE-011] (H-[Hyp]GQLGLAGPK-OH), the “GM-CSF Concentration” value [1, 3] was 97.0 pg/mL, the GM-CSF conc/live cell [1, 3] was 18.3 pg/10^5 and the “GM-CSF Concentration” value [1, 4] was 92.5 pg/mL and 96.3 pg/mL and 102.1 pg/mL. The GM-CSF conc/live cell [1, 4] was 20.6 pg/10^5 and 16.6 pg/10^5 and 17.6 pg/10^5, the “GM-CSF Concentration” value [1, 5] was 103.2 pg/mL and the GM-CSF conc/live cell [1, 5] was 17.9 pg/10^5. For the same compound, the “GM-CSF Concentration” value [1, 6] was 90.4 pg/mL and 108.0 pg/mL and 111.3 pg/mL, the GM-CSF conc/live cell [1, 6] was 14.3 pg/10^5 and 17.4 pg/10^5 and 21.8 pg/10^5 and the “GM-CSF Concentration” value [1, 7] was 95.6 pg/mL. The GM-CSF conc/live cell [1, 7] was 16.7 pg/10^5, the “GM-CSF Concentration” value [1, 8] was 100.5 pg/mL and 90.8 pg/mL and 95.4 pg/mL and the GM-CSF conc/live cell [1, 8] was 15.2 pg/10^5 and 18.2 pg/10^5 and 16.7 pg/10^5. For the same compound, the “GM-CSF Concentration” value [1, 9] was 93.9 pg/mL, the GM-CSF conc/live cell [1, 9] was 18.7 pg/10^5 and the “GM-CSF Concentration” value [1, 10] was 96.3 pg/mL and 92.5 pg/mL and 92.9 pg/mL. For the same compound, the GM-CSF conc/live cell [1, 10] was 17.5 pg/10^5 and 19.3 pg/10^5 and 19.4 pg/10^5, the “GM-CSF Concentration” value [1, 11] was 98.2 pg/mL and the GM-CSF conc/live cell [1, 11] was 18.7 pg/10^5. For the same compound, the “GM-CSF Concentration” value [1, 12] was 103.0 pg/mL and 92.9 pg/mL and 98.8 pg/mL, the GM-CSF conc/live cell [1, 12] was 19.1 pg/10^5 and 16.0 pg/10^5 and 21.0 pg/10^5 and the “GM-CSF Concentration” value [1, 13] was 135.7 pg/mL. For the same compound, the GM-CSF conc/live cell [1, 13] was 22.4 pg/10^5, the “GM-CSF Concentration” value [1, 14] was 149.0 pg/mL and 127.8 pg/mL and 130.3 pg/mL and the GM-CSF conc/live cell [1, 14] was 24.4 pg/10^5 and 21.0 pg/10^5 and 21.7 pg/10^5. The “Concentration, CCL20/MIP-3 alpha” value [2, 3] was 246.5 pg/mL, the “MFI, CCL20/MIP-3 alpha” value [2, 3] was 263.3 and the “conc/live cell, CCL20/MIP-3 alpha” value [2, 3] was 46.9 pg/10^5. The “Concentration, CCL20/MIP-3 alpha” value [2, 15] was 264.2 pg/mL and 223.2 pg/mL and 252.1 pg/mL, the “MFI, CCL20/MIP-3 alpha” value [2, 15] was 284.5 and 235.5 and 270.0 and the “conc/live cell, CCL20/MIP-3 alpha” value [2, 15] was 58.7 pg/10^5 and 38.5 pg/10^5 and 43.5 pg/10^5. For the same compound, the “Concentration, CCL20/MIP-3 alpha” value [2, 5] was 255.6 pg/mL, the “MFI, CCL20/MIP-3 alpha” value [2, 5] was 274.2 and the “conc/live cell, CCL20/MIP-3 alpha” value [2, 5] was 44.2 pg/10^5. For the same compound, the “Concentration, CCL20/MIP-3 alpha” value [2, 16] was 233.3 pg/mL and 258.8 pg/mL and 274.6 pg/mL, the “MFI, CCL20/MIP-3 alpha” value [2, 16] was 247.5 and 278.0 and 297.0 and the “conc/live cell, CCL20/MIP-3 alpha” value [2, 16] was 37.0 pg/10^5 and 41.7 pg/10^5 and 53.8 pg/10^5. The “Concentration, CCL20/MIP-3 alpha” value [2, 7] was 239.4 pg/mL, the “MFI, CCL20/MIP-3 alpha” value [2, 7] was 254.8 and the “conc/live cell, CCL20/MIP-3 alpha” value [2, 7] was 42.0 pg/10^5. The “Concentration, CCL20/MIP-3 alpha” value [2, 17] was 238.3 pg/mL and 231.6 pg/mL and 248.4 pg/mL, the “MFI, CCL20/MIP-3 alpha” value [2, 17] was 253.5 and 245.5 and 265.5 and the “conc/live cell, CCL20/MIP-3 alpha” value [2, 17] was 36.1 pg/10^5 and 46.3 pg/10^5 and 43.6 pg/10^5. For the same compound, the “Concentration, CCL20/MIP-3 alpha” value [2, 9] was 211.3 pg/mL, the “MFI, CCL20/MIP-3 alpha” value [2, 9] was 221.5 and the “conc/live cell, CCL20/MIP-3 alpha” value [2, 9] was 42.2 pg/10^5. The “Concentration, CCL20/MIP-3 alpha” value [2, 18] was 203.6 pg/mL and 208.7 pg/mL and 221.5 pg/mL, the “MFI, CCL20/MIP-3 alpha” value [2, 18] was 212.5 and 218.5 and 233.5 and the “conc/live cell, CCL20/MIP-3 alpha” value [2, 18] was 37.0 pg/10^5 and 43.5 pg/10^5 and 46.1 pg/10^5. The “Concentration, CCL20/MIP-3 alpha” value [2, 11] was 230.3 pg/mL, the “MFI, CCL20/MIP-3 alpha” value [2, 11] was 244.0 and the “conc/live cell, CCL20/MIP-3 alpha” value [2, 11] was 43.9 pg/10^5. For the same compound, the “Concentration, CCL20/MIP-3 alpha” value [2, 19] was 234.1 pg/mL and 222.3 pg/mL and 234.5 pg/mL, the “MFI, CCL20/MIP-3 alpha” value [2, 19] was 248.5 and 234.5 and 249.0 and the “conc/live cell, CCL20/MIP-3 alpha” value [2, 19] was 43.4 pg/10^5 and 38.3 pg/10^5 and 49.9 pg/10^5. For the same compound, the “Concentration, CCL20/MIP-3 alpha” value [2, 13] was 323.4 pg/mL, the “MFI, CCL20/MIP-3 alpha” value [2, 13] was 356.5 and the “conc/live cell, CCL20/MIP-3 alpha” value [2, 13] was 53.3 pg/10^5. For the same compound, the “Concentration, CCL20/MIP-3 alpha” value [2, 20] was 342.2 pg/mL and 319.4 pg/mL and 308.7 pg/mL, the “MFI, CCL20/MIP-3 alpha” value [2, 20] was 379.5 and 351.5 and 338.5 and the “conc/live cell, CCL20/MIP-3 alpha” value [2, 20] was 56.1 pg/10^5 and 52.4 pg/10^5 and 51.5 pg/10^5.

From patent US20230146455A1, “TREATMENT OF INFLAMMATORY DISEASES WITH PEPTIDES AND PHARMACEUTICAL COMPOSITIONS” (Yuyu Pharma, Inc., priority 2020, published 2023)
